Laboratory results as given in PubChem BioAssay AID248 (DTP/NCI, 2004).
“And” between values parts separate entries of the source, which are not always exact repeats. Equal values may be shown once. Toxic doses and inconclusive results are not listed.

System: L1210 leukemia ip in BDF1 mice, survival T/C
Test: NCI In Vivo Anticancer Drug Screen. Data for tumor model L1210 Leukemia (intraperitoneal) in B6D2F1 (BDF1) mice
Details: higher = longer survival
Summary of the method: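 Each compound was tested against a transplantable tumor grown in mice. The endpoint was survival, with treated animals benchmarked against vehicle controls as a simple ratio.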

[1] = endpoint: mean survival time, dose: 100.0 mg/kg/injection, schedule: Q01DX009 (ip), vehicle: saline with Tween-80
[2] = endpoint: mean survival time, dose: 200.0 mg/kg/injection, schedule: Q01DX009 (ip), vehicle: saline with Tween-80

For `COc1cc2cc3c4cc(OC)c(OC)cc4cc[n+]3c(C)c2cc1OC`, the T/C (endpoint: mean survival time, dose: 12.0 mg/kg/injection, schedule: Q01DX009 (ip), vehicle: saline) was 100 % of control, the T/C (endpoint: mean survival time, dose: 12.5 mg/kg/injection, schedule: Q01DX009 (ip), vehicle: water) was 117 % of control and the T/C (endpoint: mean survival time, dose: 16.0 mg/kg/injection, schedule: Q03HX008 (ip), vehicle: saline) was 122 % of control. For the same compound, the T/C (endpoint: mean survival time, dose: 16.0 mg/kg/injection, schedule: Q03HX016 (ip), vehicle: saline) was 122 % of control, the T/C (endpoint: mean survival time, dose: 25.0 mg/kg/injection, schedule: Q01DX009 (ip), vehicle: saline) was 117 % of control and the T/C (endpoint: mean survival time, dose: 32.0 mg/kg/injection, schedule: Q03HX008 (ip), vehicle: saline) was 118 % of control. For the same compound, the T/C (endpoint: mean survival time, dose: 32.0 mg/kg/injection, schedule: Q03HX024 (ip), vehicle: saline) was 124 % of control, the T/C (endpoint: mean survival time, dose: 50.0 mg/kg/injection, schedule: Q01DX009 (ip), vehicle: saline sonified) was 115 % of control and the T/C (endpoint: mean survival time, dose: 50.0 mg/kg/injection, schedule: Q04DX002 (ip), vehicle: saline) was 120 % of control. For the same compound, the T/C (endpoint: mean survival time, dose: 50.0 mg/kg/injection, schedule: Q04DX003 (ip), vehicle: saline) was 116 % of control, the T/C (endpoint: mean survival time, dose: 64.0 mg/kg/injection, schedule: Q03HX008 (ip), vehicle: saline) was 122 % of control and the T/C (endpoint: mean survival time, dose: 100.0 mg/kg/injection, schedule: Q01DX009 (ip), vehicle: saline sonified) was 115 % of control. The T/C (endpoint: mean survival time, dose: 100.0 mg/kg/injection, schedule: Q01DX009 (ip), vehicle: saline) was 110 % of control and 119 % of control, the T/C (endpoint: mean survival time, dose: 100.0 mg/kg/injection, schedule: Q04DX002 (ip), vehicle: saline) was 123 % of control and the T/C (endpoint: mean survival time, dose: 100.0 mg/kg/injection, schedule: Q04DX003 (ip), vehicle: saline) was 108 % of control. For the same compound, the T/C (endpoint: mean survival time, dose: 128.0 mg/kg/injection, schedule: Q01DX001 (ip), vehicle: saline) was 117 % of control, the T/C (endpoint: mean survival time, dose: 128.0 mg/kg/injection, schedule: Q01DX009 (ip), vehicle: saline) was 120 % of control and the T/C (endpoint: mean survival time, dose: 128.0 mg/kg/injection, schedule: Q03HX008 (ip), vehicle: saline) was 124 % of control. For the same compound, the T/C (endpoint: mean survival time, dose: 128.0 mg/kg/injection, schedule: Q04DX003 (ip), vehicle: saline) was 114 % of control, the T/C (endpoint: mean survival time, dose: 128.0 mg/kg/injection, schedule: Q08DX002 (ip), vehicle: saline) was 122 % of control and the T/C (endpoint: mean survival time, dose: 200.0 mg/kg/injection, schedule: Q01DX009 (ip), vehicle: saline sonified) was 112 % of control. For the same compound, the T/C (endpoint: mean survival time, dose: 200.0 mg/kg/injection, schedule: Q04DX002 (ip), vehicle: saline) was 120 % of control, the T/C (endpoint: mean survival time, dose: 256.0 mg/kg/injection, schedule: Q01DX001 (ip), vehicle: saline) was 117 % of control and the T/C (endpoint: mean survival time, dose: 256.0 mg/kg/injection, schedule: Q08DX002 (ip), vehicle: saline) was 118 % of control. For the same compound, the T/C (endpoint: mean survival time, dose: 400.0 mg/kg/injection, schedule: Q01DX009 (ip), vehicle: water) was 151 % of control, the T/C (endpoint: mean survival time, dose: 400.0 mg/kg/injection, schedule: Q04DX002 (ip), vehicle: saline) was 116 % of control and 118 % of control and the T/C (endpoint: mean survival time, dose: 400.0 mg/kg/injection, schedule: Q04DX003 (ip), vehicle: saline) was 120 % of control. The T/C (endpoint: mean survival time, dose: 512.0 mg/kg/injection, schedule: Q01DX001 (ip), vehicle: saline) was 119 % of control, the T/C (endpoint: mean survival time, dose: 512.0 mg/kg/injection, schedule: Q08DX002 (ip), vehicle: saline) was 120 % of control and the T/C (endpoint: mean survival time, dose: 1024.0 mg/kg/injection, schedule: Q04DX003 (ip), vehicle: saline) was 106 % of control. The T/C (endpoint: median survival time, dose: 16.0 mg/kg/injection, schedule: Q03HX008 (ip), vehicle: saline) was 122 % of control, the T/C (endpoint: median survival time, dose: 16.0 mg/kg/injection, schedule: Q03HX024 (ip), vehicle: saline) was 122 % of control and the T/C (endpoint: median survival time, dose: 32.0 mg/kg/injection, schedule: Q01DX009 (ip), vehicle: saline) was 122 % of control. For the same compound, the T/C (endpoint: median survival time, dose: 50.0 mg/kg/injection, schedule: Q01DX009 (ip), vehicle: saline) was 105 % of control and 109 % of control, the T/C (endpoint: median survival time, dose: 62.5 mg/kg/injection, schedule: Q01DX009 (ip), vehicle: saline) was 120 % of control and the T/C (endpoint: median survival time, dose: 64.0 mg/kg/injection, schedule: Q01DX001 (ip), vehicle: saline) was 122 % of control. For the same compound, the T/C (endpoint: median survival time, dose: 64.0 mg/kg/injection, schedule: Q01DX009 (ip), vehicle: saline) was 122 % of control, the T/C (endpoint: median survival time, dose: 64.0 mg/kg/injection, schedule: Q01DX009 (oral), vehicle: saline) was 100 % of control and the T/C (endpoint: median survival time, dose: 64.0 mg/kg/injection, schedule: Q01DX009 (sc), vehicle: saline) was 100 % of control. The T/C (endpoint: median survival time, dose: 64.0 mg/kg/injection, schedule: Q03HX008 (ip), vehicle: saline) was 122 % of control, the T/C (endpoint: median survival time, dose: 64.0 mg/kg/injection, schedule: Q04DX003 (ip), vehicle: saline) was 122 % of control and the T/C (endpoint: median survival time, dose: 64.0 mg/kg/injection, schedule: Q08DX002 (ip), vehicle: saline) was 111 % of control. The T/C (endpoint: median survival time, dose: 125.0 mg/kg/injection, schedule: Q01DX009 (ip), vehicle: saline) was 120 % of control, the T/C (endpoint: median survival time, dose: 128.0 mg/kg/injection, schedule: Q01DX001 (ip), vehicle: saline) was 122 % of control and the T/C (endpoint: median survival time, dose: 128.0 mg/kg/injection, schedule: Q01DX009 (ip), vehicle: saline) was 122 % of control. For the same compound, the T/C (endpoint: median survival time, dose: 128.0 mg/kg/injection, schedule: Q01DX009 (oral), vehicle: saline) was 105 % of control, the T/C (endpoint: median survival time, dose: 128.0 mg/kg/injection, schedule: Q01DX009 (sc), vehicle: saline) was 100 % of control and the T/C (endpoint: median survival time, dose: 128.0 mg/kg/injection, schedule: Q04DX003 (ip), vehicle: saline) was 122 % of control. For the same compound, the T/C (endpoint: median survival time, dose: 128.0 mg/kg/injection, schedule: Q08DX002 (ip), vehicle: saline) was 122 % of control, the T/C (endpoint: median survival time, dose: 256.0 mg/kg/injection, schedule: Q01DX009 (oral), vehicle: saline) was 111 % of control and the T/C (endpoint: median survival time, dose: 256.0 mg/kg/injection, schedule: Q01DX009 (sc), vehicle: saline) was 94 % of control. The T/C (endpoint: median survival time, dose: 256.0 mg/kg/injection, schedule: Q08DX002 (ip), vehicle: saline) was 122 % of control, the T/C (endpoint: median survival time, dose: 512.0 mg/kg/injection, schedule: Q01DX001 (ip), vehicle: saline) was 122 % of control and the T/C (endpoint: median survival time, dose: 512.0 mg/kg/injection, schedule: Q01DX009 (oral), vehicle: saline) was 100 % of control. The T/C (endpoint: median survival time, dose: 512.0 mg/kg/injection, schedule: Q01DX009 (sc), vehicle: saline) was 100 % of control, the T/C (endpoint: median survival time, dose: 512.0 mg/kg/injection, schedule: Q04DX003 (ip), vehicle: saline) was 122 % of control and the T/C (endpoint: median survival time, dose: 1024.0 mg/kg/injection, schedule: Q01DX009 (oral), vehicle: saline) was 88 % of control. For the same compound, the T/C (endpoint: median survival time, dose: 1024.0 mg/kg/injection, schedule: Q01DX009 (sc), vehicle: saline) was 100 % of control, the T/C (endpoint: median survival time, dose: 1024.0 mg/kg/injection, schedule: Q08DX002 (ip), vehicle: saline) was 122 % of control and the T/C (endpoint: median survival time, dose: 1600.0 mg/kg/injection, schedule: Q01DX009 (ip), vehicle: saline) was 90 % of control.

For `CCC(C#N)(CCN(CC=C(C)C)CC=C(C)C)c1cccc2ccccc12` (centres undefined), the T/C (endpoint: mean survival time, dose: 100.0 mg/kg/injection, schedule: Q04DX003 (ip), vehicle: Klucel (hydroxypropylcellulose) (HPC)) was 96 % of control.

For `Cc1c(O)cc2c(c1O)C(=O)CC(c1ccc(O)cc1)O2` (centres undefined), the T/C (endpoint: mean survival time, dose: 100.0 mg/kg/injection, schedule: Q04DX002 (ip), vehicle: Klucel (hydroxypropylcellulose) (HPC)) was 91 % of control, the T/C (endpoint: mean survival time, dose: 200.0 mg/kg/injection, schedule: Q04DX002 (ip), vehicle: Klucel (hydroxypropylcellulose) (HPC)) was 87 % of control and the T/C (endpoint: mean survival time, dose: 400.0 mg/kg/injection, schedule: Q04DX002 (ip), vehicle: Klucel (hydroxypropylcellulose) (HPC)) was 108 % of control.

For `Cc1ccc(C)c(C[P+](c2ccccc2)(c2ccccc2)c2ccccc2)c1`, the T/C (endpoint: mean survival time, dose: 15.0 mg/kg/injection, schedule: Q01DX001 (ip), vehicle: saline) was 104 % of control.

For `NC(=O)C1NC(=O)NC1=O` (centres undefined), the T/C [1] was 88 % of control, the T/C [2] was 93 % of control and the T/C (endpoint: mean survival time, dose: 400.0 mg/kg/injection, schedule: Q01DX009 (ip), vehicle: saline with Tween-80) was 97 % of control.

With `c1ccc(CN(CCCOc2ccccc2)Cc2ccccc2)cc1` the T/C (endpoint: mean survival time, dose: 100.0 mg/kg/injection, schedule: Q04DX003 (ip), vehicle: saline with Tween-80) was 103 % of control, the T/C (endpoint: mean survival time, dose: 200.0 mg/kg/injection, schedule: Q04DX003 (ip), vehicle: saline with Tween-80) was 103 % of control and the T/C (endpoint: mean survival time, dose: 400.0 mg/kg/injection, schedule: Q04DX003 (ip), vehicle: saline with Tween-80) was 97 % of control.

`CSC(=N)c1cccc(OCCOc2ccccc2)c1` was tested, and the T/C (endpoint: mean survival time, dose: 50.0 mg/kg/injection, schedule: Q01DX009 (ip), vehicle: Klucel (hydroxypropylcellulose) (HPC)) was 96 % of control, the T/C (endpoint: mean survival time, dose: 100.0 mg/kg/injection, schedule: Q01DX009 (ip), vehicle: Klucel (hydroxypropylcellulose) (HPC)) was 102 % of control and the T/C (endpoint: mean survival time, dose: 200.0 mg/kg/injection, schedule: Q01DX009 (ip), vehicle: Klucel (hydroxypropylcellulose) (HPC)) was 96 % of control.

`CCOC(=O)Nc1cc(NCC(O)CN(C)C)c([N+](=O)[O-])c(N)n1` (centres undefined) was tested, and the T/C (endpoint: mean survival time, dose: 100.0 mg/kg/injection, schedule: Q01DX001 (ip), vehicle: saline with Tween-80) was 103 % of control, the T/C (endpoint: mean survival time, dose: 200.0 mg/kg/injection, schedule: Q01DX001 (ip), vehicle: saline with Tween-80) was 94 % of control and the T/C (endpoint: mean survival time, dose: 400.0 mg/kg/injection, schedule: Q01DX001 (ip), vehicle: saline with Tween-80) was 101 % of control.

`COc1ccc(OC)c(NC(=S)NC(=O)c2ccccc2F)c1` was tested, and the T/C [1] was 94 % of control and the T/C [2] was 86 % of control.
